# Molecular target: T1, human vasopressin V1a receptor subtype (Homo sapiens, UniProt P37288)
# T1 construct: host or cells: CHO cells, stably transfected (pZeoSV vector for the Thibonnier line)
# Assay: Vasopressin binding in CHO cell membranes expressing human vasopressin V1a subtype receptors ([3H]Manning ligand radioligand binding)
# Conditions: 100 nM
# Description: Vasopressin Binding in Chinese Hamster Ovary Cell Membranes Expressing Human Vasopressin V1a Subtype Receptors
# The trypsin is removed by aspiration and the cells dislodged by tapping. Cell Culture medium (e.g. 30 mL for 1:30 split) is immediately added and mixed well to inactivate trypsin. 1 mL of detached cells is added to new culture flasks containing fresh cell culture medium (e.g., into 25 mL per T-150 flask), and mixed gently. The cells are incubated at 37° C. in 5% CO2. The medium is changed at 3 to 4 days interval (or as appropriate). […] All steps are done under sterile conditions.
# The cells are washed twice gently with Hank's Balanced Salt solution (e.g,. use 10 mL per T-150 flask). […] The contents are transferred to centrifuge tubes (50 mL) kept in an ice bath. All subsequent steps are done at 4° C. The tubes are centrifuged at 300×g for 15 min (1380 rpm on SORVAL, Model RT6000D, using the rotor for 50 mL tubes). The supernatant is discarded and the cells suspended in homogenizing buffer(10 mM Tris-HCl containing 0.25 M sucrose and 1 mM EDTA, pH 7.4) ensuring that the volume of the buffer is about ten times the volume of the cell pellet. The cells are pooled into a centrifuge tube (50 mL) and homogenized with Polytron at setting 6 for 10 sec. The homogenate is transferred into a Potter-Elvjehm homogenizer and homogenized with 3 strokes. The homogenate is centrifuged at 1500×g for 10 min at 4° C. (3100 rpm using SORVAL, model RT6000D, using the rotor for 50 mL tubes). The pellet is discarded. The supernatant is centrifuged at 100,000×g for 60 min. at 4° C. (Beckman L8-80M ultracentrifuge; spin at 37,500 rpm with rotor type 70 Ti for 50 mL tubes; 38,000 rpm with type 80Ti for 15 mL tubes; or 35,800 rpm with rotor type 45Ti). The supernantant is discarded and the pellet suspended in 3 to 4 mL of Tris buffer (50 mM TRIS-HCl, pH 7.4). The protein content is estimated by the Bradford or Lowry method. The volume of the membrane suspension is adjusted with the membrane buffer (50 mM Tris-HCl containing 0.1% BSA and 0.1 mM PMSF) to give 3.0 mg/mL (or as appropriate) of protein. The membranes are aliquoted and stored at −70° C.
# In wells of a 96-well format microtiter plate, is added 90, 110 or 130 μL (to make up a final volume of 200 μL) of assay buffer containing 50 mM of Tris-HCl (pH 7.4), BSA (heat inactivated, protease-free), […], 1 mg % aprotinin, 1 mg % leupeptin, 2 mg % 1,10-phenanthroline, 10 mg % trypsin inhibitor, and 0.1 mM PMSF. The inhibitors are added on the day of the experiment. The components are mixed at room temperature, and then kept in ice bath following adjustment of the pH to 7.4. […] 20 μL of 50% DMSO is added for Manning and other peptide ligands and the assay buffer volume is adjusted accordingly. To each well is added 50 μL of frozen membrane suspension thawed immediately prior to use and diluted in the assay buffer to the required concentration (equivalent to 25 to 50 μg of protein/well as needed). 20 μL of 8 nM [^3H]Manning ligand in the assay buffer, prepared just before use, is added, and incubated at room temperature for 60 min. shaking the plate on a mechanical shaker for the first 15 min. The incubation is stopped by rapid filtration of the plate contents followed by wash with ice-cold buffer (50 mM Tris-HCl, pH 7.4) using a cell harvester (Tomtek and Printed filtermat-B filter paper). The filter paper is thoroughly dried (7–12 min. in a microwave oven) and impregnated with MeltiLex B/H melt-on scintillation wax sheets and the radioactivity counted in a betaplate scintillation counter.
# Binding data is either reported as percent inhibition at a certain concentration or if an IC50 was calculated, as a nanomolar concentration.
# T1 sequence (P37288 whole entry): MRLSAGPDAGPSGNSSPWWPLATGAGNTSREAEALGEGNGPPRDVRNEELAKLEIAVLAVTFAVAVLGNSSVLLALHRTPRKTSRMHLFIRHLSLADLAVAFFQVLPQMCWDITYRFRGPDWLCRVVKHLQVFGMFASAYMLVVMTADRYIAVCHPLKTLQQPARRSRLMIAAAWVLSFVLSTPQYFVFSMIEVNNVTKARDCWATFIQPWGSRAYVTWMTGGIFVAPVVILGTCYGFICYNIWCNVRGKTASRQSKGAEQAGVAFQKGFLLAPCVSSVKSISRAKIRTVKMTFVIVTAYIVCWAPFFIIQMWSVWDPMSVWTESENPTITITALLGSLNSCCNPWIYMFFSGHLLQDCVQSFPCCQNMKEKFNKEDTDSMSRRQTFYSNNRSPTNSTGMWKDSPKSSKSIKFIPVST
SMILES,inhibition at 0.1 µM [%],V1a % inhibition @ 100 nM [%]
"O=C(NCc1ccccn1)c1ccc2n1Cc1ccccc1N(C(=O)c1ccc(-c3cccc4ccccc34)cc1Cl)C2 [Example 34, 10-[2-Chloro-4-(naphthalen-1-yl)benzoyl]-N-(2-pyridinylmethyl)-10,11-dihydro-5H-pyrrolo[2,1-c][1,4]benzodiazepine-3-carboxamide]",5,–
"COc1ccccc1-c1ccc(C(=O)N2Cc3ccc(C(=O)N4CCCCC4c4cccnc4)n3Cc3ccccc32)cc1 (centres unmarked) [Example 139, {10-[(2′-Methoxy-[1,1′-biphenyl]-4-yl)carbonyl]-10,11-dihydro-5H-pyrrolo[2,1-c][1,4]benzodiazepin-3-yl}[2-(3-pyridinyl)-1-piperidinyl]methanone]",21,–
"CN(CCc1ccncc1)C(=O)c1ccc2n1Cc1ccccc1N(C(=O)c1ccc(-c3cccc4ccccc34)cc1Cl)C2 [Example 136, 10-[2-Chloro-4-(naphthalen-1-yl)benzoyl]-N-methyl-N-[2-(4-pyridinyl)ethyl]-10,11-dihydro-5H-pyrrolo[2,1-c][1,4]benzodiazepine-3-carboxamide]",7,–
"COc1ccccc1-c1ccc(C(=O)N2Cc3ccc(C(=O)N(C)CCc4ccncc4)n3Cc3ccccc32)cc1 [Example 129, 10-[(2′-Methoxy-[1,1′-biphenyl]-4-yl)carbonyl]-N-methyl-N-[2-(4-pyridinyl)ethyl]-10,11-dihydro-5H-pyrrolo[2,1-c][1,4]benzodiazepine-3-carboxamide]",54,–
"COc1cc(-c2ccccc2C)c(Cl)cc1C(=O)N1Cc2ccc(C(=O)N(C)CCc3ccncc3)n2Cc2ccccc21 [Example 132, 10-[(6-Chloro-3-methoxy-2′-methyl-[1,1′-biphenyl]-4-yl)carbonyl]-N-methyl-N-[2-(4-pyridinyl)ethyl]-10,11-dihydro-5H-pyrrolo[2,1-c][1,4]benzodiazepine-3-carboxamide]",26,–
"COc1ccccc1-c1ccc(C(=O)N2Cc3ccc(C(=O)N(C)CCc4ccccn4)n3Cc3ccccc32)cc1OC [Example 64, 10-[(2,2′-Dimethoxy-[1,1′-biphenyl]-4-yl)carbonyl]-N-methyl-N-[2-(2-pyridinyl)ethyl]-10,11-dihydro-5H-pyrrolo[2,1-c][1,4]benzodiazepine-3-carboxamide]",21,–
"Cc1ccccc1-c1ccc(C(=O)N2Cc3ccc(C(=O)N(C)CCc4ccncc4)n3Cc3ccccc32)cc1C [Example 127, 10-[(2,2′-Dimethyl-[1,1′-biphenyl]-4-yl)carbonyl]-N-methyl-N-[2-(4-pyridinyl)ethyl]-10,11-dihydro-5H-pyrrolo[2,1-c][1,4]benzodiazepine-3-carboxamide]",66,–
"COc1cc(-c2ccccc2C)c(Cl)cc1C(=O)N1Cc2ccc(C(=O)NCCc3ccccn3)n2Cc2ccccc21 [Example 55, 10-[(6-Chloro-3-methoxy-2′-methyl-[1,1′-biphenyl]-4-yl)carbonyl]-N-[2-(2-pyridinyl)ethyl]-10,11-dihydro-5H-pyrrolo[2,1-c][1,4]benzodiazepine-3-carboxamide]",-7,–
"Cc1ccccc1-c1ccc(C(=O)N2Cc3ccc(C(=O)NCc4ccccn4)n3Cc3ccccc32)cc1 [Example 27, 10-[(2′-Methyl-[1,1′-biphenyl]-4-yl)carbonyl]-N-(2-pyridinylmethyl)-10,11-dihydro-5H-pyrrolo[2,1-c][1,4]benzodiazepine-3-carboxamide]",20,–
"Cc1ccccc1-c1ccc(C(=O)N2Cc3ccc(C(=O)N(C)CCc4ccncc4)n3Cc3ccccc32)cc1 [Example 130, N-Methyl-10-[(2′-methyl-[1,1′-biphenyl]-4-yl)carbonyl]-N-[2-(4-pyridinyl)ethyl]-10,11-dihydro-5H-pyrrolo[2,1-c][1,4]benzodiazepine-3-carboxamide]",5,–
COc1cc(C(=O)N2Cc3ccc(C(=O)N4CCN(c5ccccn5)CC4)n3Cc3ccccc32)ccc1-c1cccc2ccccc12 [Example 83],–,9
"COc1ccccc1-c1ccc(C(=O)N2Cc3ccc(C(=O)NCCc4ccccn4)n3Cc3ccccc32)cc1 [Example 52, 10-[(2′-Methoxy-[1,1′-biphenyl]-4-yl)carbonyl]-N-[2-(2-pyridinyl)ethyl]-10,11-dihydro-5H-pyrrolo[2,1-c][1,4]benzodiazepine-3-carboxamide]",16,–
"COc1cc(C(=O)N2Cc3ccc(C(=O)NCCc4ccccn4)n3Cc3ccccc32)ccc1-c1cccc2ccccc12 [Example 57, 10-[3-Methoxy-4-(naphthalen-1-yl)benzoyl]-N-[2-(2-pyridinyl)ethyl]-10,11-dihydro-5H-pyrrolo[2,1-c][1,4]benzodiazepine-3-carboxamide]",2,–

# The next lines start with the values.
inhibition at 0.1 µM [%],V1a % inhibition @ 100 nM [%],SMILES
15,–,"Cc1ccccc1-c1ccc(C(=O)N2Cc3ccc(C(=O)NCc4cccnc4)n3Cc3ccccc32)cc1 [Example 40, 10-[(2′-Methyl-[1,1′-biphenyl]-4-yl)carbonyl]-N-(3-pyridinylmethyl)-10,11-dihydro-5H-pyrrolo[2,1-c][1,4]benzodiazepine-3-carboxamide]"
23,–,"COc1cccc(-c2ccc(C(=O)N3Cc4ccc(C(=O)NCc5ccccn5)n4Cc4ccccc43)cc2OC)c1 [Example 33, 10-[(2,3′-Dimethoxy-[1,1′-biphenyl]-4-yl)carbonyl]-N-(2-pyridinylmethyl)-10,11-dihydro-5H-pyrrolo[2,1-c][1,4]benzodiazepine-3-carboxamide]"
38,–,"COc1ccccc1-c1ccc(C(=O)N2Cc3ccc(C(=O)N(C)CCc4ccncc4)n3Cc3ccccc32)cc1C [Example 126, 10-[(2′-Methoxy-2-methyl-[1,1′-biphenyl]-4-yl)carbonyl]-N-methyl-N-[2-(4-pyridinyl)ethyl]-10,11-dihydro-5H-pyrrolo[2,1-c][1,4]benzodiazepine-3-carboxamide]"
0,–,"COc1cccc(-c2ccc(C(=O)N3Cc4ccc(C(=O)NCc5cccnc5)n4Cc4ccccc43)cc2C)c1 [Example 38, 10-[(3′-Methoxy-2-methyl-[1,1′-biphenyl]-4-yl)carbonyl]-N-(3-pyridinylmethyl)-10,11-dihydro-5H-pyrrolo[2,1-c][1,4]benzodiazepine-3-carboxamide]"
-7,–,"COc1cccc(-c2cc(OC)c(C(=O)N3Cc4ccc(C(=O)NCc5ccccn5)n4Cc4ccccc43)cc2Cl)c1 [Example 30, 10-[(6-Chloro-3,3′-dimethoxy-[1,1′-biphenyl]-4-yl)carbonyl]-N-(2-pyridinylmethyl)-10,11-dihydro-5H-pyrrolo[2,1-c][1,4]benzodiazepine-3-carboxamide]"
13,–,"COc1ccccc1-c1ccc(C(=O)N2Cc3ccc(C(=O)NCc4ccccn4)n3Cc3ccccc32)cc1OC [Example 32, 10-[(2,2′-Dimethoxy-[1,1′-biphenyl]-4-yl)carbonyl]-N-(2-pyridinylmethyl)-10,11-dihydro-5H-pyrrolo[2,1-c][1,4]benzodiazepine-3-carboxamide]"
4,–,"COc1cccc(-c2cc(OC)c(C(=O)N3Cc4ccc(C(=O)N(C)Cc5cccnc5)n4Cc4ccccc43)cc2Cl)c1 [Example 108, 10-[(6-Chloro-3,3′-dimethoxy-[1,1′-biphenyl]-4-yl)carbonyl]-N-methyl-N-(3-pyridinylmethyl)-10,11-dihydro-5H-pyrrolo[2,1-c][1,4]benzodiazepine-3-carboxamide]"

# From US7064120B2, “Tricyclic pyridyl carboxamides and derivatives thereof tocolytic oxytocin receptor antagonists” (Wyeth, priority 2001, dated 2006)
